Test results from patent publication US4933354A, “2-pyrrolidone-5-carboxylic acid compounds useful for the treatment of mental disorders” (Kissei Pharmaceutical Co., Ltd., priority 1987, dated 1990).

system: ECS-induced amnesic mice; assay: One trial passive avoidance task by step-through test (ECS-induced amnesia); type: in vivo, mice (male, dd-strain); conditions: oral, 1 μmole/mouse, 1 hr before training trial; test 24 hr after training
Experimental: Anti-amnesic effects of the compounds were determined by the following tests. Male mice of dd-strain, weighing 23-30 g, were employed for the experiment, and the test compounds were freshly dissolved in saline and administered orally at a dose of 1 μmole/mouse. (1) One trial passive avoidance task by step-through test A shuttle box composed of a light (7 cm high, 9 cm wide and 15 cm depth) and a dark (12 cm high, 13 cm wide and 15 cm depth) box; the former was lighted using […]-white light fluorescent bar lamp placed at the position of 40 cm from the floor and in the latter the stainless steel floor grids 2.5 mm in diameter were placed at intervals of 4 mm in order to give a foot shock. Both boxes were connected with a gate 3 cm in diameter. As the training trial, each animal was placed in the light box and a foot shock ([…]) was delivered through the floor grid immediately after the animal entered into the dark box, accordingly the animal learned a punishment for the entrance. […] Twenty-four hr after the training trial, the animal was placed again in the light box and step-through (ST) latency, time spent until the animal entered the dark box, was measured. […] The ST-latency on the test trial was measured up to 300 and 600 sec for control and amnesic group, respectively.

Row | Compound | ST-latency in ECS-induced amnesic mice
1 | O=C1CCC(C(=O)OCc2ccc(Cl)cc2)N1 (centres unmarked) [Compound 1, p-Chlorobenzyl 2-pyrrolidone-5-carboxylate] | prolonged the ST-latency in ECS-induced amnesic mice significantly

system: not listed separately; assay: Acute toxicity; conditions: mouse, in vivo; male SCL-ICR mice, single shot, lethality at 1 week; route not given
Experimental: The test compounds were administered to male mice of SCL-ICR-strain, 7 weeks age, at several dosage (single shot) and LD50, 50% lethal dose, was estimated from the number of lethal mice at 1 week past to the administration.

Row | Compound | LD50 at 168 h
2 | O=C1CCC(C(=O)OCc2ccc(Cl)cc2)N1 (centres unmarked) [Compound 1, p-Chlorobenzyl 2-pyrrolidone-5-carboxylate] | > 2590 mg/kg
3 | O=C1CCC(C(=O)OCc2ccccn2)N1 (centres unmarked) [Compound 2, 2-Pyridylmethyl 2-pyrrolidone-5-carboxylate] | 1540 mg/kg
4 | O=C1CCC(C(=O)OCc2cccnc2)N1 (centres unmarked) [Compound 3, 3-Pyridylmethyl 2-pyrrolidone-5-carboxylate] | > 2590 mg/kg
5 | O=C1CCC(C(=O)OCc2ccncc2)N1 (centres unmarked) [Compound 4, 4-Pyridylmethyl 2-pyrrolidone-5-carboxylate] | > 2590 mg/kg
6 | O=C1CCC(C(=O)OCCc2ccccn2)N1 (centres unmarked) [Compound 5, 2-(2-Pyridyl)ethyl 2-pyrrolidone-5-carboxylate] | > 2590 mg/kg
7 | O=C1CCC(C(=O)OCCCc2ccccn2)N1 (centres unmarked) [Compound 6, 3-(2-Pyridyl)propyl 2-pyrrolidone-5-carboxylate] | < 1250 mg/kg
8 | O=C1CCC(C(=O)NCc2ccccn2)N1 (centres unmarked) [Compound 7, N-(2-Pyridylmethyl)-2-pyrrolidone-5-carboxamide] | > 2590 mg/kg
